# Literature values as cited in patent publication US20060062853A1 (Medical Research Institute, priority 2004, published 2006).
# Key:
# [1] = such as juices
# [2] = not given; remark: listed apart in the source
smiles,measurement,setting,value
"CN(CC(=O)O)C(=N)N [creatine, N-(aminoiminomethyl)-N-methylglycine]",half-life in blood plasma,,1 to 1.5 h
same,stability in acidic solutions,[1],not stable
same,creatine lost from the cell,[2]; 70 kg male,approximately 2 grams per day
same,loss of creatine from skeletal muscle,[2]; skeletal muscle,about 3 % per day
